Experimental data published in patent publication US20050048587A1, “Methods for identifying tolerance modulatory compounds and uses therefor” (TolerRx, Inc., priority 2003, published 2005).

Assays:
Type in all cases: cell-based, human
[1] = test system: peripheral blood lymphocytes (PBLs); assay: Assay of cell proliferation of stimulated PBL; settings: PBL stimulated with anti-CD3/anti-CD28, 72 hours
Experimental: FIG. 3 graphically depicts the proliferation of peripheral blood lymphocytes (PBLs) at 72 hours post-stimulation with αCD3/αCD28 in the presence of the known immunomodulatory agents, rapamycin, cyclosporine, and Cellcept (MMF) (anti-proliferative agent). Proliferation is relative to that observed in control, stimulated PBL (in the absence of any added agent).
PBL were activated with anti-CD3 in combination with anti-CD28 in the presence or absence of the known immunomodulatory drugs including dexamethasone, rapamycin, cyclosporine A and Cellcept (antiproliferative agent) at the concentrations indicated. At 72 hours, RNA was prepared from the treated cells and the untreated controls. Real-time PCR was performed using cDNA from the RNA and using the primers and probes for the three transcription factors. The data are set forth in FIG. 2A-D. Dexamethasone is documented to result in a shift of in vivo immune responses towards characteristics recognized to be associated with Th2 cells when administered to both humans and animals. […] Rapamycin and cyclosporine are general immunosuppressants utilized to prevent allograft rejection in humans. Both drugs are known to utilize common cellular components. […] Cellcept is an anti-proliferative agent also used in organ transplantation. Its primary effect on the immune system is believed to be simple reduction of lymphocyte proliferation.

Tbox21 = Tbox21 (TBX21) transcription factor mRNA expression, real-time PCR, in stimulated PBL; settings: PBL stimulated 72 hrs with anti-CD3/anti-CD28 in presence of agent; relative to stimulated PBL without agent
Experimental: (§1) CD4+CD45RA+naïve, CD4+CD45RA−memory cells were prepared as follows. A Buffy Coat from human peripheral blood was obtained from the Oklahoma Blood Institute and processed as follows. Blood was diluted 1:2 with PBS without Ca^++Mg^++. 30 ml diluted blood was overlaid onto 15 ml Ficoll. Tubes were spun for ˜30 minutes at 2000 rpm. The Buffy cell layer was harvested into 25 ml PBS and brought to a volume of 45 ml total. Tubes were then spun ˜10 minutes at […]. Tubes were finally combined and washed with PBS. Approximately 10 percent of the cell preparation was set aside (X-VIVO 15 media+10% FCS) and is referred to hereinafter as “PBL.”
(§2) Cells (i.e., PDL, CD4+ naive, and CD4+ memory cells), were plated in six well dishes at approximately 3-4×10^6 cells/well. Prior to plating, wells were coated with αCD3/αCD28 antibodies. This was achieved by incubating the wells in the presence of antibodies for approximately 2 hrs at 37° C. Wells were subsequently washed with PBS. Cells were plated in X-VIVO 15 with 10% FCS. […]
(§3) 2.5 μl Assay on Demand reagent (Applied Biosystems) were added to 25 μl TaqMan Master MiX™ and samples brought to a total volume of 50 μl with RNAse-free water. […] Reactants were detected using an Applied Biosystems QPCR instrument (i.e., ABI Program 7000 SDS Sequence Detection System). […] The relative expression of the markers in each cell type and at each time point was also determined. […]

Th2 cells = assay: [3H] thymidine proliferation assay of differentiated Th2 cells; settings: anti-CD3/CD-28 coated wells, 72 hrs with drug, [3H] thymidine incorporation
Experimental: (§4) Resting, fully differentiated Th1, Th2 and Treg were seeded in wells of a 96 well plate coated with anti-CD3 and CD-28. Cells (200,000 per well) were grown in the presence or absence of a known immunomodulatory drugs including rapamycin, cyclosporine A and Cellcept (MMF) (antiproliferative agent) at the concentrations indicated for 72 hrs prior to the addition of [^3H] thymidine. The cells were then incubated with [^3H] thymidine (0.5 μCi/well) for an additional 6-18 hrs and harvested. [^3H] thymidine incorporation was determined by liquid scintillation counting.

FOXP3 = FOXP3 transcription factor mRNA expression, real-time PCR, in stimulated PBL; settings: PBL stimulated 72 hrs with anti-CD3/anti-CD28 in presence of agent; relative to stimulated PBL without agent
Experimental: as §1, §2, §3

Th1 cytokines = assay: Cytokine production by differentiated Th1 cells, multiplexed ELISA; settings: anti-CD3/CD-28 coated wells, 72 hrs with drug, supernatants
Experimental: (§5) Resting, fully differentiated Th1, Th2 and Treg were seeded in wells sof a 96 well plate coated with anti-CD3 and CD-28. Cells (200,000 per well) were grown in the presence or absence of a known immunomodulatory drugs including rapamycin, cyclosporine A and Cellcept (MMF) (antiproliferative agent) at the concentrations indicated for 72 hrs prior to the collection of supernatants for measurement of secreted cytokines. Cytokine measurement were made using a multiplexed ELISA assay (Pierce/Endogen Searchlight Assay).

TGFβ by Treg cells = assay: TGFβ production by differentiated Treg cells, multiplexed ELISA; settings: anti-CD3/CD-28 coated wells, 72 hrs with drug, supernatants
Experimental: as §5

Th1 cells = assay: [3H] thymidine proliferation assay of differentiated Th1 cells; settings: anti-CD3/CD-28 coated wells, 72 hrs with drug, [3H] thymidine incorporation
Experimental: as §4

GATA3 = GATA3 transcription factor mRNA expression, real-time PCR, in stimulated PBL; settings: PBL stimulated 72 hrs with anti-CD3/anti-CD28 in presence of agent; relative to stimulated PBL without agent
Experimental: as §1, §2, §3

Th2 cytokines = assay: Cytokine production by differentiated Th2 cells, multiplexed ELISA; settings: anti-CD3/CD-28 coated wells, 72 hrs with drug, supernatants
Experimental: as §5

Treg cells = assay: [3H] thymidine proliferation assay of differentiated Treg cells; settings: anti-CD3/CD-28 coated wells, 72 hrs with drug, [3H] thymidine incorporation
Experimental: as §4

| Molecule | effect on cell proliferation [1] | effect on Tbox21/TBX21 (Th1 transcription factor) expression (Tbox21) | effect on proliferation of Th2 cells (Th2 cells) | effect on FOXP3 (Treg transcription factor) expression (FOXP3) | effect on Th1 cytokine production (Th1 cytokines) | effect on production of TGFβ by Treg cells (TGFβ by Treg cells) | effect on proliferation of Th1 cells (Th1 cells) | effect on GATA3 (Th2 transcription factor) expression (GATA3) | effect on Th2 cytokine production (Th2 cytokines) | effect on proliferation (expansion) of Treg cells (Treg cells) |
| --- | --- | --- | --- | --- | --- | --- | --- | --- | --- | --- |
| COc1c(C)c2c(c(O)c1C/C=C(\C)CCC(=O)OCCN1CCOCC1)C(=O)OC2 [Cellcept] | dose-dependent inhibition of proliferation | did not affect | equally inhibited the expansion of all cell types in a dose dependent manner | did not affect | does not suppress | does not suppress any cytokine measured except for TGFβ in T reg cells | equally inhibited the expansion of all cell types in a dose dependent manner | did not affect | does not suppress | equally inhibited the expansion of all cell types in a dose dependent manner |
| TGFβ |  |  |  | induced |  |  |  |  |  |  |
| IL4: cytokine known to initiate the differentiation of Th2 cells (protein, UniProt P05112 25-153, looked up) Interleukin-4: HKCDITLQEIIKTLNSLTEQKTLCTELTVTDIFAASKNTTEKETFCRAATVLRQFYSHHEKDTRCLGATAQQFHRHKQLIRFLKRLDRNLWGLAGLNSCPVKEANQSTLENFLERLKTIMREKYSKCSS |  |  |  |  |  |  |  | clearly increased |  |  |
